Results from patent US20060257875A1, “Affinity screening using "one-bead-one-compound" libraries” (Carlsberg A/S, priority 2003, published 2006).
Where “and” joins values, the source holds several entries; their conditions need not be identical. Equal values may be shown once. Entries after “also recorded” stand apart in the source; their conditions may differ.

Assays:
[1] = tested on: normal porcine macrophage proteins; test: Solid phase screening of small molecule Library 7 with labeled viral and porcine macrophage proteins; assay type: binding; details: Normal Macrophages
Source text: (§1) Alternatively, the fluorescent ligand library beads containing bound protein obtained as described in Examples 47, 48, 49 and 51 were sorted using a COPAS (250) NF Bead Sorter (Union Biometrica, Somerville, Mass.) equipped with a dual detector. Both the cyanine dyes used in the labeling procedure, namely Cy 2 (emission wavelength—510 nm) and Cy 3 (emission wavelength—570 nm) were simultaneously excited at […] The bead selection window was then set-up such that all beads containing significant green fluorescence and no red flourescence were isolated. The unselected beads were then resorted to obtain beads containing red fluorescence (proteins from basal cells). The selected red and green fluorescent beads were then sorted into brightly and less brightly fluorescent beads, to give an indication of either the strength of binding of the ligand to a particular protein or the amount of protein present in the sample binding to the ligand.
(§2) Ligands can be completely or partially identified by MALDI_TOF-MS whether or not the library is synthesized by ladder synthesis. […] The ligand is cleaved from the resin bead depending on the type of linker used. […] Peptide fragments (ladder synthesis) or single compounds were extracted from the bead with 0.5 AL CH3CN, then 0.5 FL 70% CH3CN/H2O. […] In the case of the acid labile Rink linker (Library 7), the compound was released from the bead by treatment with 95% TFA or 30 min. The TFA solution was evaporated and the cleaved compounds were extracted in 2 μL 70% acetonitrile+0.1% TFA. This mixture was then transferred to a stainless steel disc to which 0.4 μL of CHC matrix+1.0% TFA was added. An additional 0.4 μL of CHC matrix+1.0% TFA was added to complete sample application.
(§3) A typical analysis employed 100-300 laser shots. […] A typical analysis employed 200-300 laser shots. The possible identity of the ligand was determined (Narrowed down) by comparing the recorded mass of the ligand with the masses of all possible compounds formed in the library. This comparison was carried out using an in-house created computer program The precise identity of the ligand can then be confirmed using MS fragmentation as described in Example 41.
(§4) Isolated proteins that bound to specific ligands were identified using peptide mass fingerprinting. Mass spectra were recorded on a Bruker Reflex m MALDI time-of-flight mass spectrometer (Bruker-Daltonics, Bremen, Germany) operated in the positive reflectron mode using delayed extraction. Measurements were performed using the following parameters: Power 83-84 V; lens 7.300. The sum of 200-300 shots was used for each spectrum.
(§5) The spectra were calibrated using bradykinin peptide. In some cases, internal mass calibration was performed using a porcine trypsin autolysis product Peptide masses were searched against peptide mass maps in the National Center for Biotechnology Information (NCBI) database using the following search engines found on the world wide web (www.) for each of: • MS-FIT (prospector.ucsf.edu/ucsfhtml/msfit.htm), • Profound (129.85.19.192/profound_biniWebProFound.exe), and • MASCOT (matrixscience.com).
(§6) A search was performed using the NCBI bacterial (E. coli) database and the mammalian databases for the isolated proteins from the E. coli and myocyte samples, respectively, and the Swiss Prot mammalian databases and the Swiss Prot viral databases were searched to identify the porcine macrophage proteins and proteins, respectively. A molecular mass range was estimated from 0-250 K Da, allowing a mass accuracy that varied from 0.1 Da (some cases 0.3 Da) for each peptide mass. A large pI range from 0-14 or 0-12 was considered for each search. If no proteins matched, the mass window was extended. Partial enzyme cleavages allowing for two missed cleavage sites and modification of cysteine by alkylation were considered in the search approaches. A protein was considered identified if the matched peptides covered at least 30% of the complete sequence. […]

[2] = tested on: porcine reproductive and respiratory virus infected macrophage proteins; test: as above; assay type: binding; details: Virus-infected Macrophages, (V) indicates virus proteins
Source text: as §1, §2, §3, §4, §5, §6

cardiac myocytes = test: Inhibition of DNA synthesis (cardiac hypertrophy) in cardiac myocytes treated with peptides (FIG. 3); assay type: cell-based
Source text: The columns indicate average induction of DNA synthesis in cardiac myocytes treated with peptides. The Y-axis indicates fold induction (control basal=100%).
The importance of six ligands in cardiac hypertrophy was investigated by examining the effect of the ligand on the increase in protein synthesis (meaured by increase in DNA synthesis) in myocytes that had been treated with serum to induce a hypertrophic state (FIG. 3).

[3] = tested on: phenylephrine (PE)-treated myocyte proteins; test: Solid phase screening of Library 1 with labeled myocyte proteins; bound proteins identified by on-bead digest and peptide mass fingerprinting; assay type: binding, neonatal Wistar rats; details: Library 1 ligand on PEGA4000 bead; Phenylephrine Treated (Hyperthrophic) Myocytes
Description: Myocytes were prepared from 1 to 5 day old neonatal Wistar rats (University of Copenhagen) according to literature procedure described in Busk et al., 2002, Cardiovasc. Res., 56: 64-75 and plated into eight P10 culture plates at 6 million cells/plate.
Protein was extracted from myocytes prepared as described above for Example 9, using a new procedure modified from existing protocols, primarily: Arrott, et al., 1998, Anal Biochem. 258: 1-18. The media was removed from plates and adhered cells were treated for 10 minutes with ice cold phosphate buffer (0.25 mL, 10 mM, pH 7.5, augmented with 0.15 M NaCl 60 mM Benzamidine HCl, 5 mM EDTA, 10 μg/n E-64, 10 μg/mL Leu-peptin, 10 μg/mL Pepstatin A, and 1 mM PMSF). The cells were scraped off the plates and then lysed (on ice) in a sonicator (2×) using 10 seconds off/10 seconds on cycles.
The resulting suspension was augmented with CHAPS, DTT, and urea to a final concentration of CHAPS (1% w/v), DTT (5 mM), and urea (8 M). After 10-15 minutes on ice, the solution was centrifuged for 10 minutes at 15,000 rpm at 4° C. The supernatant was removed and protein content quantified using the NanoOrange Protein test (Molecular Probes, Eugene, Oreg.): Total protein recovered: 70.5 μg for PE-treated cells and 60 μg for basal cells.
Fluorescent dye Oregon Green 514 (OR) (Molecular Probes) was used to label the healthy/basal cells while Rhodamine Red (RR) (Molecular Probes) was used to label the PE-treated cells. The labeling procedures were carried out according to the manufacturer's protocol. The protein solutions (0.25 mL, 50.4 μg for PE cells and 0.25 mL, 42.8 μg for basal cells) were dialyzed against a solution of 10 mM phosphate buffer, 0.15 M NaCl, pH 7.5 and then 1 M NaHCO3 (0.025 mL) added to a final pH of 8.5. 10 μL of dye in dry DMF (10 mg/mL) was added and the sample stirred at room temperature for 2 hours. The protein solution was dialyzed extensively against 10 mM phosphate buffer, 0.15 M NaCl, pH 7.5, to remove excess dye.
Ligand library 1 (200 mg), prepared as described for Example 5, was transferred to a syringe fitted with a stop-valve and the ligand-beads were washed for 10 minutes (3×) with 10 mM phosphate buffer, pH 6.8, supplemented with 0.15 M NaCl, 1 mM Ca^2+, 1 mM Zn^2+, 1 mM Mn^2+, 1 mM Cu^2+, and 1 mM Mg^2+ (3 mL). The ligand-beads were treated with a 1% BSA solution for 30 minutes, then washed with buffer (1×). A mixture of labeled myocyte proteins, including both PE-induced protein (138 μL, 40 μg) and basal protein (167 μL, 40 μg) obtained as described above for Example 11, was prepared in 1.2 mL buffer, and added to the ligand library in the syringe. The proteins and ligand library were incubated at room temperature for 16 hours. The library was then washed with buffer for 5 minutes then with water for 3×5 minutes. The library was examined under a fluorescence microscope and brightly fluorescent red, green, and yellow beads (yellow indicative of both dyes red and green binding; the majority of the beads) were present, as well as unlabelled beads. The fluorescent beads were separated and retained for analysis.
The fluorescent ligand library beads containing bound protein obtained as described in Example 15 were sorted using a COPAS (250) NF Bead Sorter (Union Biometrica, Somerville, Mass.) equipped with a single flourescence emission. Beads emitting fluorescence of only one color contain proteins from one physical state, e.g. proteins expressed only in the PE-induced hypertrophic state (red) or proteins expressed only in the basal state (green). Since the instrument measures one fluorescence emission at a time, beads containing one type of color fluorescence were first sorted and then beads were resorted for emissions from the other fluorescence color. The library was first sorted such that all beads containing significant green fluorescence, basal proteins from healthy myocytes, were isolated. […]

[4] = hypertrophied myocytes (treated with serum to induce a hypertrophic state)

Compound	Identified Protein(s) [1]	Identified Protein(s) [2]	further results
Cc1ccc(-c2csc(C(=O)NCC(=O)O)c2)cc1	Salt inducible kinase 2 (27529963); PVHL-ubiqquitin interacting enzyme 2 (23208620); Similar to glyceral- dehyde-3-phosphate dehydrogenase (gi27686413)		
O=C(O)[C@@H]1CCCN1C(=O)c1ccc(-c2ccco2)o1	Salt inducible kinase 2 (27529963); PVHL-ubiqquitin interacting enzyme 2 (23208620); Similar to glyceral- dehyde-3-phosphate dehydrogenase (gi27686413)		
COc1ccccc1-c1ccc(C(=O)NCC(=O)O)o1	Salt inducible kinase 2 (27529963); PVHL-ubiqquitin interacting enzyme 2 (23208620); Similar to glyceral- dehyde-3-phosphate dehydrogenase (gi27686413)		
COc1ccc(-c2ccc(C(=O)NCC(=O)O)o2)cc1	Salt inducible kinase 2 (27529963); PVHL-ubiqquitin interacting enzyme 2 (23208620); Similar to glyceral- dehyde-3-phosphate dehydrogenase (gi27686413)		
NC[C@H](NC(=O)c1cccc(-c2ccco2)n1)C(=O)O	Salt inducible kinase 2 (27529963); PVHL-ubiqquitin interacting enzyme 2 (23208620); Similar to glyceral- dehyde-3-phosphate dehydrogenase (gi27686413)		
COc1ccc(-c2ccc(C(=O)O)cc2)c(OC)c1C(=O)N[C@@H](Cc1c[nH]cn1)C(=O)O		Carbohydrate (chondroitin synthase 2) (28466981); Glucosidase II alpha-subunit (gi5452936); Similar to chromosome 9 reading frame 24 (gi29437020) (V) Envelope glycoprotein C2V3 region (gi3925092); Envelope glycoprotein (gi15705767)	
COc1ccc(OC)c(-c2ccc(OC)c(C(=O)N[C@@H](Cc3c[nH]cn3)C(=O)O)c2OC)c1		Carbohydrate (chondroitin synthase 2) (28466981); Glucosidase II alpha-subunit (gi5452936); Similar to chromosome 9 reading frame 24 (gi29437020) (V) Envelope glycoprotein C2V3 region (gi3925092); Envelope glycoprotein (gi15705767)	
COc1ccc(OC)c(-c2ccc(C(=O)N[C@@H](Cc3ccc(OC)c(OC)c3)C(=O)O)o2)c1		Carbohydrate (chondroitin synthase 2) (28466981); Glucosidase II alpha-subunit (gi5452936); Similar to chromosome 9 reading frame 24 (gi29437020) (V) Envelope glycoprotein C2V3 region (gi3925092); Envelope glycoprotein (gi15705767)	
COc1ccc(C[C@H](NC(=O)c2ccc(-c3ccc(C(=O)O)cc3)o2)C(=O)O)cc1OC		Carbohydrate (chondroitin synthase 2) (28466981); Glucosidase II alpha-subunit (gi5452936); Similar to chromosome 9 reading frame 24 (gi29437020) (V) Envelope glycoprotein C2V3 region (gi3925092); Envelope glycoprotein (gi15705767)	
CC(O)[C@H](NC(=O)c1cc(-c2ccco2)cs1)C(=O)O (some centres unmarked)		Unnamed protein product (26336134); Seri- ne/threonine kinase 9/cylin dependent Serine/threonine kinase 9(23271297/4507281); Caveolin 1(gi 4972627/AAD347221) (V) Envelope glycoprotein (gi 3832399)	
Abi-Thr-Hyp-Hyp-His-			extent of DNA synthesis (cardiac myocytes; [4]): reduced the extent of DNA synthesis; extent of DNA synthesis (cardiac myocytes; normal myocytes): reduced the extent of DNA synthesis; Identified Protein(s) [3]: Phosphofructokinase (gi 7331123); Selenium binding pro-; also recorded: tein (gi 8848341/6677907); (Serine arginine rich pro-; also recorded: tein kinase (LA); Guanylate kinase (gi 20986250) (LA),; also recorded: (M); SPTR (gi 12842823) (M, Actin interacting protein
Phe-Abi-Pal-Hyp-Thr-Hyp			Identified Protein(s) [3]: Zinc finger associated protein gi 20304091; Ribosomal; also recorded: proteins 40S L series (gi 206736/133023);
Phe-Gua-Pal-Tyr-Gua-Tyr			extent of DNA synthesis (cardiac myocytes; [4]): reduced the extent of DNA synthesis; extent of DNA synthesis (cardiac myocytes; normal myocytes): reduced the extent of DNA synthesis; Identified Protein(s) [3]: Glucose-6-Phosphatase (gi 6679893/15488608); Succinate; also recorded: dehydrogenase; ARL-interacting protein (gi 4927202); also recorded: (M); SPTR (gi 12834839) (M), Nucleic acid binding
Pya-Gua-Abi-Asp-Abi-Tyr			extent of DNA synthesis (cardiac myocytes; [4]): reduced the extent of DNA synthesis; extent of DNA synthesis (cardiac myocytes; normal myocytes): reduced the extent of DNA synthesis; Identified Protein(s) [3]: SPTR (gi 20869775) (M); Ribosomal proteins (60s) (gi and 20875941/6677773); (Calcium channel (gi 3202010) (M): and Slo channel protein isoform (gi 3644046) (M); Potassium and conductance calcium activated channel (gi 6754436 and NP_034740) (M);; Regulator of G-protein signalling 8 and (gi 9507049).
